Reference: ChEMBL document CHEMBL1201862, “PubChem BioAssay data set” (2004)
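Results reflect a 48-hour exposure of cells in 96-well plates to compound at five concentrations. At the GI50, growth is halved.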 Calls of active or inactive are those of the source. No stated cut-off is given here; in the data, active = GI50 up to about 1.1 µM and inactive = higher.

Key:
Experiment in all cases: inhibition of tumour cell growth, NCI panel, 48 h
[1] = system: HCC 2998
[2] = system: T47D
[3] = system: UO-31
[4] = system: HCT-116
[5] = system: MOLT-4
[6] = system: NCI-H522
[7] = system: HOP-62
[8] = system: IGROV-1
[9] = system: LOX IMVI
[10] = system: SF-295
[11] = system: Malme-3M
[12] = system: K562
[13] = system: COLO 205
[14] = system: ACHN
[15] = system: TK-10
[16] = system: HOP-92
[17] = system: SK-MEL-2
[18] = system: NCI-H226
[19] = system: OVCAR-4
[20] = system: SF-539

Measured: GI50

CC(NNC(=O)c1cc[n+]([BH2-]C#N)cc1)c1ccc(F)cc1 (stereo not given)
inactive: [1] > 100 µM | [2] > 100 µM | [3] > 100 µM | [4] > 100 µM | [5] > 100 µM | [6] > 100 µM | [7] > 100 µM | [8] > 100 µM | [9] > 100 µM | [10] > 100 µM | [11] > 100 µM | [12] > 100 µM | [13] > 100 µM | [14] > 100 µM | [15] > 100 µM | [16] > 100 µM | [17] > 100 µM | [18] > 100 µM | [19] > 100 µM | [20] > 100 µM
